Laboratory results from paper PMC7367283, “A PIP2 substitute mediates voltage sensor-pore coupling in KCNQ activation” (Communications Biology, 2020).
“And” between values parts separate entries of the source, which are not always exact repeats. Identical values can stand only once.

Tests used:
KCNQ2/KCNQ3 = KCNQ2/KCNQ3 (Homo sapiens, UniProt O43525+O43526); test: Two-electrode voltage clamp of KCNQ2+KCNQ3 in Xenopus oocytes; assay type: cell-based; conditions: Q2/Q3, individual oocytes
Text: (§1) KCNQ2 and KCNQ3 form a channel complex that carries M currents in neurons. Similar to KCNQ1, these KCNQ subunits require PIP2 for voltage-dependent activation. KCNQ2 alone can express functional channels in Xenopus oocytes, while KCNQ3 alone cannot. However, a single mutation, A315T, allows KCNQ3 to functionally express in Xenopus oocytes. We examined the effects of CP1 on KCNQ2, KCNQ3 with mutation A315T (denoted as KCNQ3*), KCNQ2+KCNQ3, and KCNQ2+KCNQ3* expressed in Xenopus oocytes (Fig. 5a). Similar to the effects on KCNQ1 and IKs channels, CP1 changed the amplitude of currents (Fig. 5b), shifted the G–V relation to more negative voltages (Fig. 5c), and slowed the deactivation kinetics (Fig. 5d) for all of these KCNQ channels. These CP1 effects were relatively small on KCNQ2 as compared with those on other KCNQ channels, and the effects on KCNQ2/KCNQ3* and KCNQ2/KCNQ3 complexes were closer to those on KCNQ2 alone.
(§2) Fig. 5 Subtype selectivity of CP1 on KCNQ channels. a Current traces of KCNQ channels as indicated in the absence and the presence of 10 µM CP1. […]
(§3) The whole-oocyte ionic currents were recorded with a GeneClamp 500B amplifier (Axon Instruments, CA) or iTEV90 amplifier (HEKA, Germany) and then sampled at 1 kHz and low-pass-filtered at 2 kHz. […] The Kir1.1 current was recorded with a high K^+ bath solution containing (in mM) 96 KCl, 4 NaCl, 1 CaCl2, 2 MgCl2, and 10 HEPES, pH 7.3–7.4. The HCN4 current was recorded in ND66 solution containing (in mM) 66 NaCl, 32 KCl, 1.8 CaCl2, 1 MgCl2, and 5 HEPES, pH 7.6. All the other potassium channels were recorded in ND96 solution. The currents of CaV1.2 channel were recorded in 40 mM Ba^2+ bath solution containing (in mM) 40 Ba(OH)2, 50 TEA-OH, 2 KOH, and 5 HEPES, adjusted to pH 7.4 with methanesulfonic acid. […] The HCN4 currents were recorded by a test pulse between −30 and −140 mV in 10-mV step from a holding potential of −30 mV. […]

KCNQ2 = KCNQ2 (Homo sapiens, UniProt O43526); test: Two-electrode voltage clamp of KCNQ2 in Xenopus oocytes; assay type: cell-based; conditions: Q2, individual oocytes
Text: as §1, §2, §3

- outward current (Icp1/Ictrl) (KCNQ2/KCNQ3; 10 µM CP1, at −10 mV): 1.7551 and 1.3309 and 1.0976 and 1.4059
SMILES: O=S(=O)([O-])Oc1c(-c2sc3c(ccc4cccc(Cl)c43)c2OS(=O)(=O)[O-])[nH]c2ccc(Br)cc12.[Na+].[Na+] [CP1, DISODIUM 5-BROMO-2-[9-CHLORO-3-(SULFONATOOXY) NAPHTHO [1,2-B] THIEN-2-YL]-1H-INDOL-3-YL SULFATE]
- ∆V1/2 (KCNQ2/KCNQ3; 10 µM CP1): 15.349 mV and 10.5931 mV and 18.0231 mV and 10.5937 mV
- τ deact at -120 mV (KCNQ2/KCNQ3; 10 µM CP1 treated): 0.1194 s and 0.1528 s and 0.295 s and 0.1626 s
- outward current (Icp1/Ictrl) (KCNQ2; 10 µM CP1, at −10 mV): 0.9785 and 0.9995 and 0.8123 and 1.2015 and 0.921 and 1.0361 and 1.0974 and 0.9815
- ∆V1/2 (KCNQ2; 10 µM CP1): 17.7074 mV and 18.0799 mV and 23.5635 mV and 19.0344 mV and 22.5139 mV and 21.9525 mV and 18.3088 mV and 15.6776 mV
- τ deact at -120 mV (KCNQ2; 10 µM CP1 treated): 0.0991 s and 0.1579 s and 0.2146 s and 0.1525 s and 0.1022 s
